The test system of experiment [1] is E. coli-AbCGT. The experiment is described as follows: Optimization of cell density and substrate concentration in whole-cell biocatalysis. The following applies: replicates 1-3; for Conversion rate of 46: substrate 150 mg L^‒1; for conversion rate: OD600 = 13.0. Type of experiment: cell-based. The protocol: To study the optimal cell density, the reaction was performed in various cell densities with OD600 values in the range of 1.0−15.0 and a substrate concentration of 150 mg L^‒1. […] For quantification, three parallel assays were routinely carried out.

For experiment [2], the target named is T1, AbCGT (Aloe vera, UniProt A0A7G9P699). Kind of experiment: Glycosyltransferase activity assay, purified AbCGT (wild type) with aglycon acceptors and UDP-Glc. Type of experiment: biochemical, Aloe barbadensis. The note with it: fig. 2b, purified AbCGT, redesigned substrates; Reaction-1 to -3.
T1 sequence (A0A7G9P699 entry or part of it): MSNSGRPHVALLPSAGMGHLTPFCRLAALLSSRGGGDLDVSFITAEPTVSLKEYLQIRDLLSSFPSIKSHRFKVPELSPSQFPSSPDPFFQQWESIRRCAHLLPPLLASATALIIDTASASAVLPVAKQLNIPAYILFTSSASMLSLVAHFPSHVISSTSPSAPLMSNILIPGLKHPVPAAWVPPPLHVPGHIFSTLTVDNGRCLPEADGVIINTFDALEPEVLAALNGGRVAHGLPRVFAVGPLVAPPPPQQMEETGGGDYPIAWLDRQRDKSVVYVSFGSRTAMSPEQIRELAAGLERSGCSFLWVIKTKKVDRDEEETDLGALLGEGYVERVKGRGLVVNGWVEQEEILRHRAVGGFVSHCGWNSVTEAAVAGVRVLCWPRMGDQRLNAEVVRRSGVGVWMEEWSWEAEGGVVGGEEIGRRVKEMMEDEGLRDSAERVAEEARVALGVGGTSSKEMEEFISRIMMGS
In experiment [3] the target is T2, SGLT2 (Homo sapiens, UniProt P31639).
T2 construct: Human full-length SGLT2 cDNA (NM_003041.3) was synthesized; expressed in transfected cells; host or cells: HEK293, retroviral transduction with pMSCVpuro-SGLT2, puromycin selected
T2 sequence (P31639 1-672): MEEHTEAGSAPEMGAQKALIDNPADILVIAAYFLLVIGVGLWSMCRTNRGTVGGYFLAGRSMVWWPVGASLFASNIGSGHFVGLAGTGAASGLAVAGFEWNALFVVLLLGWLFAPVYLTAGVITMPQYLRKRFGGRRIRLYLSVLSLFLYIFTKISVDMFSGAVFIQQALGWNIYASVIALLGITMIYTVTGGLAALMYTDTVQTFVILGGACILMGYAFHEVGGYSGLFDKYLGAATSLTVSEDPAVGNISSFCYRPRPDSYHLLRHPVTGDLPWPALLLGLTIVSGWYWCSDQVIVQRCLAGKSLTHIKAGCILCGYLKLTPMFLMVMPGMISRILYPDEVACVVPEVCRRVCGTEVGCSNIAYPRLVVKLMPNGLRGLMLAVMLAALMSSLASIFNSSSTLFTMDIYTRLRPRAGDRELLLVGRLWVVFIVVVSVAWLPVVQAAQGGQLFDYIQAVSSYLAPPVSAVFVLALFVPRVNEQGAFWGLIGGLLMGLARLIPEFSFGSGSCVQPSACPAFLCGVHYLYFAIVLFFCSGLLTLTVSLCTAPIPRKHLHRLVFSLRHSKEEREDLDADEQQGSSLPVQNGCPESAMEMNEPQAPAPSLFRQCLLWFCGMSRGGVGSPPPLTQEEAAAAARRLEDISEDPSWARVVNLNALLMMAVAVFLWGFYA
Kind of experiment: 1-NBDG uptake in HEK293 cells stably expressing SGLT2. The following applies: triplicate; for inhibition at 10 µM: HEK293, compound at 10 μM, read-out: SGLT2 inhibitory rates; for SGLT2 inhibitory rates: compound at 10 μM, 10 µM. Type of experiment: cell-based.

The subject of experiment [4] is E. coli-AbCGT. Kind of experiment: Glycosylation by whole-cell biocatalyst E. coli-AbCGT. Type of experiment: cell-based. The following applies: fig. 2c, 30 °C, M9 medium, 12 h, 0.25 mM acceptor; Reaction-1 to -3. The protocol: The induced cells of E. coli-AbCGT were harvested by centrifugation at 3000 × g for 5 min at 4 °C and washed with ddH2O. Pellets were resuspended by M9 minimal medium containing 2% glucose to appropriate cell density (OD600 = 3.0). Prepared whole-cell biocatalyst of E. coli-AbCGT (500 μL) was then added to 2-mL tubes containing various acceptors at a concentration of 0.25 mM. The mixture was incubated at 30 °C for 12 h with shaking (200 rpm). The reactions were analyzed using GT activity assays as described above. For quantification, three parallel assays were routinely carried out.

Experiment [5] addresses T3, SGLT1 (Homo sapiens, UniProt P13866).
T3 construct: The full-length SGLT1 cDNA was obtained by PCR with forward primer; expressed in transfected cells
T3 sequence (P13866 1-664): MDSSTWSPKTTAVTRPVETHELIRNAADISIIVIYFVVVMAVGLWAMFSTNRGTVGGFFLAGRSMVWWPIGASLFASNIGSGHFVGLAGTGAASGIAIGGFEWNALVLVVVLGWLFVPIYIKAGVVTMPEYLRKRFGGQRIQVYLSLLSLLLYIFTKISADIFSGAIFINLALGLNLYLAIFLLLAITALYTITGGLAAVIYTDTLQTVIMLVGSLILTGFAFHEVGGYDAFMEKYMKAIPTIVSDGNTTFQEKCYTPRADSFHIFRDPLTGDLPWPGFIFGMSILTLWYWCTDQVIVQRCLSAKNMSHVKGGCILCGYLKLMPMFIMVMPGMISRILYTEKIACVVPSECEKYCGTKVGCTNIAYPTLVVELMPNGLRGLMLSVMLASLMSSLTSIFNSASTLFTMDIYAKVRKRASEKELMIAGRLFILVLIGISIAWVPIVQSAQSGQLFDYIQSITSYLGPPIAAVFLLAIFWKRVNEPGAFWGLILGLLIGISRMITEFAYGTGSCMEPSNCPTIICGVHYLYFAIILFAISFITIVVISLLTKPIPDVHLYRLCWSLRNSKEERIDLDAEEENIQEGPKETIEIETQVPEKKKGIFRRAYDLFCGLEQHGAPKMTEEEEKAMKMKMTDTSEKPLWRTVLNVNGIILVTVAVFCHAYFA
The experiment is described as follows: 1-NBDG uptake in HEK293 cells stably expressing SGLT1. Type of experiment: cell-based. The following applies: HEK293, compound at 10 μM; triplicate; read-out: SGLT1 inhibitory rates.

Experiment [6] concerns the target T1, AbCGT. The experiment is described as follows: Sugar donor promiscuity of AbCGT with phloretin (17) as acceptor. Type of experiment: biochemical, Aloe barbadensis. The note with it: sugar donor with phloretin (17) as acceptor; Reaction-1 to -3. How it is done:
The reaction mixture contained 0.5 mM sugar donors (1.0 mM for di-glycosylation), 0.25 mM aglycons, 50 mM Tris-HCl (pH 7.4), and 50‒100 μg of purified AbCGT in a final volume of 100 μL. Due to the instability of some acceptors in the buffer of pH 11.0, the reactions were performed under the physiological conditions (pH 7.4, 30 °C) to compare the catalytic activities of AbGT27 with different substrates under the same conditions. The reactions were performed at 30 °C for up to 12 h and terminated by the addition of 200 μL of ice-cold methanol. Subsequently, samples were centrifuged at 15,000 × g for 30 min to collect the supernatant, and aliquots were analyzed by HPLC-UV/ESIMS. HPLC analysis was performed on a Shiseido CAPCELL PAK C18 MG III column (250 mm × 4.6 mm I.D., 5 μm, Shiseido Co., Ltd., Japan) at a flow rate of 1 mL min^‒1. The mobile phase was a gradient elution of solvents A (0.1% formic acid aqueous solution) and B (methanol). The gradient programs were used for the analysis of the reactions (Supplementary Table 6). The conversion rates of the enzyme reactions were calculated from peak areas of glycosylated products and substrates as analyzed by HPLC. To facilitate inferential statistical analysis, three parallel assays were routinely performed; the means ± SD from triplicate analyses are reported here.

“And” between values parts separate entries of the source, which are not always exact repeats. Equal values may be shown once.

Consider `Cc1ccc(Cc2c(O)cc(O)cc2O)cc1` [Compound 46], for which the “Conversion rate of 46” value in experiment [1] (OD600nm 1.0) was 2% and 4% (2×); in experiment [1] (OD600nm 3.0) it was 13% and 11% and 15%; in experiment [1] (OD600nm 5.0), 22% (2×) and 19%; in experiment [1] (OD600nm 7.0) it was 26% and 28% and 32%; in experiment [1] (OD600nm 9.0), 33% (2×) and 29%; in experiment [1] (OD600nm 11.0), 38% and 34% and 33%. Also, the “Conversion rate of 46” value in experiment [1] (OD600nm 13.0) is 38%; in experiment [1] (OD600nm 15.0) it was 43% and 35% (2×). Besides, the conversion rate in experiment [1] (concentration of 46 57.5 mg/L) was 100%; in experiment [1] (concentration of 46 115 mg/L), 100%; in experiment [1] (concentration of 46 172.5 mg/L) it was 100%; in experiment [1] (concentration of 46 230 mg/L) it was 100%; in experiment [1] (concentration of 46 287.5 mg/L) it was 89% and 92% and 93%; in experiment [1] (concentration of 46 345 mg/L), 27.5% and 20% and 29.8%. Further, the conversion rate in experiment [1] (concentration of 46 460 mg/L) was 13.6% and 13.9% and 14%; in experiment [1] (concentration of 46 575 mg/L), 8.8% and 8.5% and 8%. In addition, in experiment [2], the “conversion rates, Purified Enzyme” value is 100%. In addition, the inhibition at 10 µM in experiment [3] was 10.8%. In addition, the “conversion rates, Whole cells” value in experiment [4] was 89% and 80.2% and 82.3%.

As to `CCCCc1ccc(Cc2c(O)cc(O)c(C3OC(CO)C(O)C(O)C3O)c2O)cc1` (stereo not shown) [Compound 47a], the inhibition at 10 µM in experiment [5] came out at 17.1%. Besides, in experiment [3], the inhibition at 10 µM is above 96% and the SGLT2 inhibitory rates was 100%.

In the case of `OCC1OC(c2c(O)cc(O)c(Cc3ccc(Cl)cc3)c2O)C(O)C(O)C1O` (stereo not shown) [Compound 49a], the inhibition at 10 µM in experiment [5] stood at 34.7%. For the same compound, in experiment [3], the inhibition at 10 µM is above 96% and the SGLT2 inhibitory rates worked out at 98.5%.

For `OCC1OC(c2c(O)cc(O)c(Cc3ccc(-c4ccccc4)cc3)c2O)C(O)C(O)C1O` (stereo not shown) [Compound 50a], in experiment [5], the inhibition at 10 µM stood at 27.1%. In experiment [3], the inhibition at 10 µM was above 96% and the SGLT2 inhibitory rates is 96.3%.

For `O=C(O)C1OC(OP(=O)(O)OP(=O)(O)OCC2OC(n3ccc(=O)[nH]c3=O)C(O)C2O)C(O)C(O)C1O` [e, UDP-α-D-glucuronic acid], in experiment [6], the “conversion rates, O,N,S-glycosylation” value was found to be 0%; the “conversion rates, di-C-glycosylation” value is 0%; the “conversion rates, mono-C-glycosylation” value was 4.8% and 5.3%.

With `CC(=O)NC1C(OP(=O)(O)OP(=O)(O)OCC2OC(n3ccc(=O)[nH]c3=O)C(O)C2O)OC(CO)C(O)C1O` (stereo not shown) [f], in experiment [6], the “conversion rates, O,N,S-glycosylation” value worked out at 0%; the “conversion rates, di-C-glycosylation” value was determined as 0%; the “conversion rates, mono-C-glycosylation” value came out at 0%.
